The values below come from patent US20040018500A1, “Methods and systems for analyzing complex biological systems” (priority 2001, published 2004).

Structures are written as SMILES. Entries after “also recorded” stand apart in the source; their conditions may differ.

In test [1] the test system is Arabidopsis thaliana plants. Put plainly: SOA1 phenotypic analysis of herbicide-treated Arabidopsis plants. The settings on record: for leafCurling (Dev.) / leafTwisting (Dev.) / leafWidth (Dev.) / matureLeafAnthocyanins (Dev.) / matureLeafChlorosis (Dev.) / matureLeafNecrosis (Dev.) / newLeafAnthocyanins (Dev.) / newLeafChlorosis (Dev.) / newLeafNecrosis (Dev.) / pointedLeaves (Dev.): numeric value standardized to mock treated tissues; for tMic (Dev.): score for time to full symptoms at minimum inhibitory concentration; for Symptom Class: three-week-old Arabidopsis treated with herbicide, phenotypes shown in FIG. 12; for characteristic symptoms (phenotypic analysis): herbicide-treated Arabidopsis. It counts as in vivo.

Test [2] concerns Arabidopsis thaliana. Put plainly: MOA1 gene expression profiling (22,000 gene array) of sprayed Arabidopsis. The settings on record: for extent of gene expression perturbation compared to the other treatments: 1 hr; for No. of Lethal Genes Altered: regulated genes (1 hr) found in list of genes essential for plant growth and development.
Test [3] deals with Saccharomyces cerevisiae wild type strain BY4743. Put plainly: AF1 metabolite analysis (GC-MS, LC-MS) of yeast treated with antifungal drugs. It counts as cell-based.
Test [4] deals with Magnaporthe grisea. It counts as cell-based.
Test [5] has as its system Arabidopsis thaliana. Put plainly: MOA1 biochemical (metabolite) profiling by LC-MS and GC-MS of sprayed Arabidopsis. The settings on record: for Number of Metabolites Changed: (unknown #) / Number of Metabolites Changed: Total #: 1 hr; for commonly regulated (putative stress-related) metabolites: MOA1, 20 minutes and 1 hour after spraying.
The test system of test [6] is Arabidopsis plants. The settings on record: nitrate addition to N-starved Arabidopsis; cited from earlier work.

`O=C(O)COc1ccc(Cl)cc1Cl` [2,4-D]: in test [1], the “leafCurling (Dev.)” value was determined as 1, the “leafTwisting (Dev.)” value came out at 2, the “leafWidth (Dev.)” value is reported as −1 and the “matureLeafAnthocyanins (Dev.)” value came out at 1. Besides, in test [1], the “matureLeafChlorosis (Dev.)” value came out at 2, the “matureLeafNecrosis (Dev.)” value was 0, the “newLeafAnthocyanins (Dev.)” value was determined as 0 and the “newLeafChlorosis (Dev.)” value came out at 1. In addition, in test [1], the “newLeafNecrosis (Dev.)” value worked out at 0, the “pointedLeaves (Dev.)” value is 0, the “tMic (Dev.)” value is recorded as 2 and the “Symptom Class” value is 5.

As to `O=C(O)c1cc(Oc2ccc(C(F)(F)F)cc2Cl)ccc1[N+](=O)[O-]` [Acifluorfen], in test [1], the “characteristic symptoms (phenotypic analysis)” value (“characteristic symptoms” below) is reported as “Necrotic leaf flecks” and the “Symptom Class” value was 6.

Take `COC(=O)NS(=O)(=O)c1ccc(N)cc1` [Asulam]: in test [2], the “extent of gene expression perturbation compared to the other treatments” value was “fewest gene expression perturbations” and the “No. of Lethal Genes Altered” value is listed as 5.

As for `CCNc1nc(Cl)nc(NC(C)C)n1` [Atrazine], in test [1], the “characteristic symptoms” value is “rapid and widespread leaf necrosis”; the “Symptom Class” value is on record as 7.

Consider `O=C(O)Cn1c(=O)sc2cccc(Cl)c21` [Benazolin], for which the “Symptom Class” value in test [1] is listed as 5.

For the molecule `CC(C)N1C(=O)c2ccccc2NS1(=O)=O` [Bentazon], in test [1], the “characteristic symptoms” value was “rapid and widespread leaf necrosis”; the “Symptom Class” value turned out to be 7.

As for `COC(=O)c1cc(Oc2ccc(Cl)cc2Cl)ccc1[N+](=O)[O-]` [Bifenox], in test [1], the “characteristic symptoms” value is “Necrotic leaf flecks” and the “Symptom Class” value worked out at 6.

Take `COc1nc(C)nc(NC(=O)NS(=O)(=O)c2ccccc2Cl)n1` [Chlorsulfuron]: in test [1], the “characteristic symptoms” value is recorded as “anthocyanin accumulation in the older leaves accompanied by chlorosis of the newly emerging leaves” and the “Symptom Class” value is given as 4. In addition, the “No. of Lethal Genes Altered” value in test [2] was 8.

`COc1c(Cl)ccc(Cl)c1C(=O)O` [Dicamba]: the “Symptom Class” value in test [1] was found to be 5.

Regarding `c1cc[n+]2c(c1)-c1cccc[n+]1CC2` [Diquat], in test [1], the “characteristic symptoms” value is “rapid and widespread leaf necrosis”; the “leafCurling (Dev.)” value is 2; the “leafTwisting (Dev.)” value turned out to be 0; the “leafWidth (Dev.)” value was −2. In test [1], the “matureLeafAnthocyanins (Dev.)” value is 0, the “matureLeafChlorosis (Dev.)” value worked out at 1, the “matureLeafNecrosis (Dev.)” value amounted to 4 and the “newLeafAnthocyanins (Dev.)” value stood at 0. In test [1], the “newLeafChlorosis (Dev.)” value is given as 1, the “newLeafNecrosis (Dev.)” value is 4, the “pointedLeaves (Dev.)” value is listed as 1 and the “tMic (Dev.)” value came out at 2. Further, in test [1], the “Symptom Class” value was 7.

With `CN(C)C(=O)Nc1ccc(Cl)c(Cl)c1` [Diuron], in test [1], the “characteristic symptoms” value was “rapid and widespread leaf necrosis”; the “leafCurling (Dev.)” value came out at 1; the “leafTwisting (Dev.)” value stood at 0; the “leafWidth (Dev.)” value is −2. In test [1], the “matureLeafAnthocyanins (Dev.)” value is reported as 0, the “matureLeafChlorosis (Dev.)” value was 2, the “matureLeafNecrosis (Dev.)” value stood at 4 and the “newLeafAnthocyanins (Dev.)” value is listed as “newLeafAnthocyanins 0”. Besides, in test [1], the “newLeafChlorosis (Dev.)” value came to 2, the “newLeafNecrosis (Dev.)” value is 4, the “pointedLeaves (Dev.)” value is listed as 1 and the “tMic (Dev.)” value is recorded as 1. For the same molecule, in test [1], the “Symptom Class” value stood at 7.

On to `OC(Cn1cncn1)(Cn1cncn1)c1ccc(F)cc1F` [Fiuconazole], for which the “Fold Change of hypoxanthine” value in test [3] (nLC) turned out to be 0.7757.

Take `CP(=O)(O)CCC(N)C(=O)O` (stereo not shown) [Glufosinate]: in test [1], the “characteristic symptoms” value was “Chlorosis and leaf curling”; the “leafCurling (Dev.)” value is reported as 2; the “leafTwisting (Dev.)” value is listed as 1; the “leafWidth (Dev.)” value was −2. Besides, in test [1], the “matureLeafAnthocyanins (Dev.)” value was 0, the “matureLeafChlorosis (Dev.)” value is 3, the “matureLeafNecrosis (Dev.)” value turned out to be 0 and the “newLeafAnthocyanins (Dev.)” value is on record as 0. In addition, in test [1], the “newLeafChlorosis (Dev.)” value was 3, the “newLeafNecrosis (Dev.)” value is 0, the “pointedLeaves (Dev.)” value was found to be 1 and the “tMic (Dev.)” value amounted to 1. For the same molecule, in test [1], the “Symptom Class” value is recorded as 3. Besides, in test [4], the “nitrogen sources M. grisea can utilize in the presence of the compound” value is “only able to utilize glutamine and glutamate as nitrogen sources”. In addition, in test [5] (p < 0.05), the “Number of Metabolites Changed: (unknown #)” value is 4(4) and the “Number of Metabolites Changed: Total #” value was 4(4). Moreover, in test [5] (p < 0.11), the “Number of Metabolites Changed: (unknown #)” value is recorded as 9(9) and the “Number of Metabolites Changed: Total #” value was 9(9). Further, the “commonly regulated (putative stress-related) metabolites” value (“commonly regulated” for short) in test [5] was “Only a few, if any, stress-related metabolites were observed”. The “No. of Lethal Genes Altered” value in test [2] is listed as 10.

For the molecule `O=C(O)CNCP(=O)(O)O` [Glyphosate], in test [1], the “characteristic symptoms” value is listed as “anthocyanin accumulation in the older leaves accompanied by chlorosis of the newly emerging leaves”, the “leafCurling (Dev.)” value is on record as 0, the “leafTwisting (Dev.)” value came to 0 and the “leafWidth (Dev.)” value was 0. In addition, in test [1], the “matureLeafAnthocyanins (Dev.)” value was 3, the “matureLeafChlorosis (Dev.)” value is reported as 1, the “matureLeafNecrosis (Dev.)” value is on record as 3 and the “newLeafAnthocyanins (Dev.)” value is on record as 1. In test [1], the “newLeafChlorosis (Dev.)” value amounted to 2, the “newLeafNecrosis (Dev.)” value is recorded as 0, the “pointedLeaves (Dev.)” value came out at 1 and the “tMic (Dev.)” value is listed as 2. Further, in test [1], the “Symptom Class” value amounted to 4. Also, in test [4], the “Tier 4: growth of M. grisea with ammonium or glutamine as nitrogen source” value is “Little growth defect” and the “growth of M. grisea with nitrate, nitrite, or glutamate as the sole nitrogen source” value is “inhibited growth”. Besides, in test [4] (250 μg/ml), the “comparison of growth results for Tiers 3 and 4 (Unknown 4 versus glyphosate)” value was “nearly identical as compared to Unknown 4”. In addition, in test [4] (glyphosate at 1.0 mg/ml), the “growth inhibition of M. grisea and its remediation” value was “remediated by inclusion of aromatic amino acids”. In addition, in test [5] (MOA1 metabolite data, one hour, relative to the control), the tyrosine level result was “decreased relative to the control after one hour”.

In the case of `CC(C)C1(C)N=C(c2ncccc2C(=O)O)NC1=O` (stereo not shown) [Imazapyr], in test [1], the “characteristic symptoms” value was “anthocyanin accumulation in the older leaves accompanied by chlorosis of the newly emerging leaves” and the “Symptom Class” value worked out at 4. For the same molecule, the “commonly regulated” value in test [5] is given as “Only a few, if any, stress-related metabolites were observed”.

For `CCc1cnc(C2=NC(C)(C(C)C)C(=O)N2)c(C(=O)O)c1` (stereo not shown) [Imazethapyr], in test [1], the “characteristic symptoms” value was “anthocyanin accumulation in the older leaves accompanied by chlorosis of the newly emerging leaves” and the “Symptom Class” value is on record as 4.

In the case of `CS(=O)(=O)c1cc(C(F)(F)F)ccc1C(=O)c1cnoc1C1CC1` [Isoxaflutole], the Alpha-tocopherol levels result in test [5] (MOA1 metabolite data, early time points) was “not significantly changed relative to the control”. Besides, the “tyrosine and phenylalanine levels” value in test [5] (MOA1 metabolite data, relative to the control) is “up-regulated relative to the control; also recorded: began to accumulate relative to the control after one hour”. Moreover, the “No. of Lethal Genes Altered” value in test [2] is listed as 15.

For `CCc1cccc(C)c1N(C(=O)CCl)C(C)COC` (stereo not shown) [Metolachlor], the “Symptom Class” value in test [1] was 7.

As to `CSc1nnc(C(C)(C)C)c(=O)n1N` [Metribuzin], in test [1], the “characteristic symptoms” value was “rapid and widespread leaf necrosis”; the “Symptom Class” value was 7.

Consider `O=C(O)c1ccccc1C(=O)Nc1cccc2ccccc12` [Naptalam], for which, in test [2], the “extent of gene expression perturbation compared to the other treatments” value is listed as “fewest gene expression perturbations” and the “No. of Lethal Genes Altered” value worked out at 3.

In the case of `O=[N+]([O-])O` [Nitrate, nitrate], in test [6], the “Nitrate Regulation of Glutamate synthetase” value is “↑”, the “Nitrate Regulation of Glutamine synthetase(2)” value is given as “↑”, the “Nitrate Regulation of MADs Box(2)” value is “↓” and the “Nitrate Regulation of MYB transcription factor” value is recorded as “↑”. In test [6], the “Nitrate Regulation of Malate Dehydrogenase” value is “↑”, the “Nitrate Regulation of Nitrate transporter” value is listed as “↑”, the “Nitrate Regulation of Phosphate transporter” value is “↑” and the “Nitrate Regulation of Transaldolase” value was “↑”. Also, the “Nitrate Regulation of Transketolase” value in test [6] was “↑”.

Take `CNc1cnn(-c2cccc(C(F)(F)F)c2)c(=O)c1Cl` [Norfluazon, Norflurazon]: the “commonly regulated” value in test [5] is on record as “Only a few, if any, stress-related metabolites were observed”.

`C[n+]1ccc(-c2cc[n+](C)cc2)cc1` [Paraquat]: in test [1], the “characteristic symptoms” value is “rapid and widespread leaf necrosis”; the “leafCurling (Dev.)” value is listed as 2; the “leafTwisting (Dev.)” value is given as 0; the “leafWidth (Dev.)” value is listed as −1. Also, in test [1], the “matureLeafAnthocyanins (Dev.)” value was determined as 0, the “matureLeafChlorosis (Dev.)” value came out at 1, the “matureLeafNecrosis (Dev.)” value was 4 and the “newLeafAnthocyanins (Dev.)” value is 0. Further, in test [1], the “newLeafChlorosis (Dev.)” value worked out at 1, the “newLeafNecrosis (Dev.)” value worked out at 4, the “pointedLeaves (Dev.)” value is listed as 1 and the “tMic (Dev.)” value is recorded as 2. The “Symptom Class” value in test [1] was 7.

In the case of `CC[C@@H]([C@H](C)O)n1ncn(-c2ccc(N3CCN(c4ccc(OC[C@@H]5CO[C@@](Cn6cncn6)(c6ccc(F)cc6F)C5)cc4)CC3)cc2)c1=O` [Posaconazoie], the “Fold Change luteolin” value in test [3] (platform LC) is recorded as 0.

As for `CC[C@@H]([C@H](C)O)n1ncn(-c2ccc(N3CCN(c4ccc(OC[C@@H]5CO[C@@](Cn6cncn6)(c6ccc(F)cc6F)C5)cc4)CC3)cc2)c1=O` [Posaconazote], in test [3] (platform nLC, p-Value 1), the “Fold Change of porphobilinogen” value is given as 0.
